In one experiment the test system is H358. In words: Anti-proliferation 2D CTG test (H358). The format is cell-based. Particulars: H358 cells, 1500 cells/well, 5 days incubation with compound, CTG readout. The gist of the method:
(§1)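 H358 (1500 cells/well) and MIA PaCa-2 (500 cells/well) seeded overnight, then treated 5 days at 37 °C with 10-point 1:3 dilutions, top final […], 0.5% DMSO. Viability by CellTiter-Glo luminescence; IC50 from four-parameter fit normalized to plate controls.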

A further experiment deals with MIA PaCa-2. In words: Anti-proliferation 2D CTG test (MIA PaCa-2). In kind it is cell-based. Particulars: MIAPACA-2 cells, 500 cells/well, 5 days incubation with compound, CTG readout. The gist of the method:
as §1

Setting [1] is: Homo sapiens, MIA PaCa-2, 120 h.

Usually IC50 stands for the concentration needed to halve the response being measured. For the compound `C=CC(=O)N1CCN(c2nc(=O)n3c4nc(c(F)cc24)-c2c(ccc(Cl)c2F)OCC(O)C(O)c2ccnc(C(C)C)c2-3)[C@@H](C)C1` (stereo partly drawn) [Example 66, (R)-2^4-((S)-4-acryloyl-2-methylpiperazin-1-yl)-3^5-chloro-2^6,3^6-difluoro-6,7-dihydroxy-1^2-isopropyl-2^1,2^2-dihydro-4-oxa-2(1,7)-pyrido[2,3-d]pyrimidina-1(3,4)-pyridina-3(1,2)-benzocycloheptane-2^2-one], the IC50 with H358 worked out at 5 nM; in the experiment on MIA PaCa-2, 3 nM.

In the case of `C=CC(=O)N1CCN(c2nc(=O)n3c4nc(c(F)cc24)-c2c(F)cccc2OCC(OCC)C(O)c2ccnc(C(C)C)c2-3)[C@@H](C)C1` (stereo partly drawn) [Example 45, (R)-2^4-((S)-4-acryloyl-2-methylpiperazin-1-yl)-6-ethoxy-2^6,3^6-difluoro-7-hydroxy-1^2-isopropyl-2^1,2^2-dihydro-4-oxa-2(1,7)-pyrido[2,3-d]pyrimidina-1(3,4)-pyridina-3(1,2)-benzocycloheptane-2^2-one], the IC50 with H358 and with MIA PaCa-2 was 2 nM each time.

As for `C=CC(=O)N1CCN(c2nc(=O)n3c4nc(c(F)cc24)-c2c(F)cccc2OCC(OCCF)C(O)c2ccnc(C(C)C)c2-3)[C@@H](C)C1` (stereo partly drawn) [Example 25, 2^4-((S)-4-acryloyl-2-methylpiperazin-1-yl)-2^6,3^6-difluoro-6-(2-fluoroethoxy)-7-hydroxy-1^2-isopropyl-2^1,2^2-dihydro-4-oxa-2(1,7)-pyrido[2,3-d]pyrimidina-1(3,4)-pyridina-3(1,2)-benzocycloheptane-2^2-one], the IC50 in the experiment on H358 turned out to be 36 nM; in the experiment with MIA PaCa-2, 15 nM.

As for `C=CC(=O)N1CCN(c2nc(=O)n3c4nc(c(F)cc24)-c2c(F)cccc2OCC(OC(=O)CC)C(OC(=O)CC)c2ccnc(C(C)C)c2-3)[C@@H](C)C1` (stereo partly drawn) [Example 12, 2^4-((S)-4-acryloyl-2-methylpiperazin-1-yl)-2^6,3^6-difluoro-1^2-isopropyl-2^2-oxo-2^1,2^2-dihydro-4-oxa-2(1,7)-pyrido[2,3-d]pyrimidina-1(3,4)-pyridina-3(1,2)-benzocycloheptane-6,7-diyl dipropionate], the IC50 amounted to 26 nM in the experiment on H358 (Homo sapiens, NCI-H358, 120 h) and 26 nM in the experiment with MIA PaCa-2 (setting [1]).

Consider `C=CC(=O)N1CCN(c2nc(=O)n3c4nc(c(F)cc24)-c2c(F)cccc2OCC(OCC)C(=O)c2ccnc(C(C)C)c2-3)[C@@H](C)C1` (stereo partly drawn) [Example 21, (R)-2^4-((S)-4-acryloyl-2-methylpiperazin-1-yl)-6-ethoxy-2^6,3^6-difluoro-1^2-isopropyl-2^1,2^2-dihydro-4-oxa-2(1,7)-pyrido[2,3-d]pyrimidina-1(3,4)-pyridina-3(1,2)-benzocycloheptane-22,7-dione], for which the IC50 with H358 (Homo sapiens, NCI-H358, 120 h) came to 60 nM; in the experiment with MIA PaCa-2 (setting [1]), 153 nM.

Take `C=CC(=O)N1CCN(c2nc(=O)n3c4nc(c(F)cc24)-c2c(F)cccc2OCC(O)C(OC(C)=O)c2ccnc(C(C)C)c2-3)[C@@H](C)C1` (stereo partly drawn) [Example 7, 2^4-((S)-4-acryloyl-2-methylpiperazin-1-yl)-2^6,3^6-difluoro-6-hydroxy-1^2-isopropyl-2^2-oxo-2^1,2^2-dihydro-4-oxa-2(1,7)-pyrido[2,3-d]pyrimidina-1(3,4)-pyridina-3(1,2)-benzocycloheptane-7-yl acetate]: the IC50 is 15 nM in the experiment with H358 (Homo sapiens, NCI-H358, 120 h) and 10 nM in the experiment with MIA PaCa-2 (setting [1]).

Take `C=CC(=O)N1CCN(c2nc(=O)n3c4nc(c(F)cc24)-c2c(F)cccc2OCC(OC(=O)OC(C)(C)C)C(OC(=O)OC(C)(C)C)c2ccnc(C(C)C)c2-3)[C@@H](C)C1` (stereo partly drawn) [Example 15, 2^4-((S)-4-acryloyl-2-methylpiperazin-1-yl)-2^6,3^6-difluoro-1^2-isopropyl-2^2-oxo-2^1,2^2-dihydro-4-oxa-2(1,7)-pyrido[2,3-d]pyrimidina-1(3,4)-pyridina-3(1,2)-benzocycloheptane-6,7-diyl di-tert-butyldi(carbonate)]: the IC50 in the experiment on H358 (Homo sapiens, NCI-H358, 120 h) came to 12 nM; in the experiment on MIA PaCa-2 (setting [1]), 10 nM.

Take `C=CC(=O)N1CCN(c2nc(=O)n3c4nc(c(F)cc24)-c2c(F)cccc2OCC(O)C(OC)c2ccnc(C(C)C)c2-3)[C@@H](C)C1` (stereo partly drawn) [Example 41, (R)-2^4-((S)-4-acryloyl-2-methylpiperazin-1-yl)-7-methoxy-2^6,3^6-difluoro-6-hydroxy-1^2-isopropyl-2^1,2^2-dihydro-4-oxa-2(1,7)-pyrido[2,3-d]pyrimidina-1(3,4)-pyridina-3(1,2)-benzocycloheptane-2^2-one]: the IC50 in the experiment on H358 was 3 nM; with MIA PaCa-2 it was 2 nM.

Consider `C=CC(=O)N1C[C@H](C)N(c2nc(=O)n3c4nc(c(F)cc24)-c2c(F)cccc2OCC(O)C(O)c2ccnc(C(C)C)c2-3)C[C@H]1C` (stereo partly drawn) [Example 3, (S)-2^4-((2S,5R)-4-acryloyl-2,5-dimethylpiperazin-1-yl)-2^6,3^6-difluoro-6,7-dihydroxy-1^2-isopropyl-2^1,2^2-dihydro-4-oxa-2(1,7)-pyrido[2,3-d]pyrimidina-1(3,4)-pyridina-3(1,2)-benzocycloheptane-2^2-one], for which the IC50 with H358 stood at 1250 nM; in the experiment with MIA PaCa-2, 400 nM.

Regarding `C=CC(=O)N1CCN(c2nc(=O)n3c4nc(c(F)cc24)-c2c(F)cccc2OCC(O)C(OCC(F)F)c2ccnc(C(C)C)c2-3)[C@@H](C)C1` (stereo partly drawn) [Example 51, (R)-2^4-((S)-4-acryloyl-2-methylpiperazin-1-yl)-7-(2,2-difluoroethoxy)-2^6,3^6-difluoro-6-hydroxy-1^2-isopropyl-2^1,2^2-dihydro-4-oxa-2(1,7)-pyrido[2,3-d]pyrimidina-1(3,4)-pyridina-3(1,2)-benzocycloheptane-2^2-one], the IC50 was 10 nM in the experiment on H358 and 7 nM in the experiment on MIA PaCa-2.

For the compound `C=CC(=O)N1C[C@H](C)N(c2nc(=O)n3c4nc(c(F)cc24)-c2c(F)cccc2OCC(O)C(OCC)c2ccnc(C(C)C)c2-3)C[C@H]1C` (stereo partly drawn) [Example 35, 2^4-((2S,5R)-4-acryloyl-2,5-dimethylpiperazin-1-yl)-7-ethoxy-2^6,3^6-difluoro-6-hydroxy-1^2-isopropyl-2^1,2^2-dihydro-4-oxa-2(1,7)-pyrido[2,3-d]pyrimidina-1(3,4)-pyridina-3(1,2)-benzocycloheptane-2^2-one], the IC50 with H358 worked out at 11 nM; with MIA PaCa-2, 4 nM.

As to `C=CC(=O)N1CCN(c2nc(=O)n3c4nc(c(F)cc24)-c2c(F)cccc2OCC(O)C(OCC(F)F)c2ccnc(C(C)C)c2-3)[C@@H](C)C1` (stereo partly drawn) [Example 32, 2^4-((S)-4-acryloyl-2-methylpiperazin-1-yl)-7-(2,2-difluoroethoxy)-2^6,3^6-difluoro-6-hydroxy-1^2-isopropyl-2^1,2^2-dihydro-4-oxa-2(1,7)-pyrido[2,3-d]pyrimidina-1(3,4)-pyridina-3(1,2)-benzocycloheptane-2^2-one], the IC50 in the experiment with H358 was found to be 41 nM; in the experiment on MIA PaCa-2, 69 nM.

These data come from patent US20240101573A1, “MACROCYCLIC K-RAS G12C INHIBITOR, PREPARATION METHOD THEREFOR AND USE THEREOF” (Abbisko Therapeutics Co., Ltd., priority 2020, published 2024).
